Reference: ChEMBL document CHEMBL5634193, “Discovery of CVN293, a Brain Permeable KCNK13 (THIK-1) Inhibitor Suitable for Clinical Assessment” (ACS Med Chem Lett, 2024)

Assays:
[1] = C0 in Beagle dog at 1 mg/kg, iv; type: ADME, organism-based, Canis lupus familiaris; conditions: in vivo
[2] = Volume of distribution at steady state in Sprague-Dawley rat at 0.5 mg/kg, iv; type: ADME, organism-based; conditions: in vivo, read-out: Vdss
[3] = Unbound drug concentration in C57BL/6 mouse plasma at 10 mg/kg, po measured after 4 hrs by LC-MS/MS analysis; type: ADME, organism-based; conditions: in vivo
[4] = molecular target: NACHT, LRR and PYD domains-containing protein 3 (Mus musculus) (UniProt Q8R4B8); experiment: Inhibition of NLRP3 inflammasome-mediated IL-1beta release in LPS-primed neonatal C57BL/6 P1-4 mouse microglia pretreated for 30 mins followed by media removal and compound re-addition with K+-free buffer measured after 2 hrs by ELISA relative to control; type: cell-based; conditions: time 150.0 min
Chain of NACHT, LRR and PYD domains-containing protein 3 (Mus musculus) (Q8R4B8 whole entry, the tested form may be a part): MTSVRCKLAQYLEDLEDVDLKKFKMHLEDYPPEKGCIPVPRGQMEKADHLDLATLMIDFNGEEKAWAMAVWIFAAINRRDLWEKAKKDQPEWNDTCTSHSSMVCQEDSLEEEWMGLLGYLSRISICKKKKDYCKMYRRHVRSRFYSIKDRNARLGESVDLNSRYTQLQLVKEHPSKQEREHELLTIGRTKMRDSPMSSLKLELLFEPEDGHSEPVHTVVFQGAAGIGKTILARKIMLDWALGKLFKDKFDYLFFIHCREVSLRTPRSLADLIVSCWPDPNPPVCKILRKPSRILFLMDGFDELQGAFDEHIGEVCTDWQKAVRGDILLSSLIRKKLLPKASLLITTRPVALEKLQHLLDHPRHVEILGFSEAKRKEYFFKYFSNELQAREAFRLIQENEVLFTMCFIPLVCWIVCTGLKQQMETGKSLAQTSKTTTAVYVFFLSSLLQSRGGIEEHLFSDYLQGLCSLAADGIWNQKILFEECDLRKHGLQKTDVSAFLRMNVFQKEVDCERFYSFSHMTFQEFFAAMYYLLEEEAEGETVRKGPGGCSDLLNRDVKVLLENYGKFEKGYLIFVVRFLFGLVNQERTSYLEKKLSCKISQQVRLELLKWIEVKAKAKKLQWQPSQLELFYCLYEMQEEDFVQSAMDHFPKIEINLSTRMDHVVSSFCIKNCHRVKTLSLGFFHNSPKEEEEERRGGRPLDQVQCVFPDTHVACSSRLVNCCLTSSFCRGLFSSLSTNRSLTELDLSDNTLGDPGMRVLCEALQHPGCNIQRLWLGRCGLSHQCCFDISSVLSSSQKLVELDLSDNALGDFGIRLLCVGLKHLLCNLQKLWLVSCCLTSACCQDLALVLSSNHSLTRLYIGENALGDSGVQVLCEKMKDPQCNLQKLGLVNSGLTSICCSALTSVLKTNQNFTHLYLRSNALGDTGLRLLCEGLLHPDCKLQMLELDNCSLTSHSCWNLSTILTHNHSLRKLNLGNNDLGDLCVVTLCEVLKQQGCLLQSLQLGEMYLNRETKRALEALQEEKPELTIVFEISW

[5] = Metabolic stability in mouse liver microsomes assessed as intrinsic clearance; type: ADME, Microsome; conditions: read-out: CLH
[6] = C0 in Cynomolgus monkey at 1 mg/kg, iv; type: ADME, organism-based, Macaca fascicularis; conditions: in vivo
[7] = molecular target: T1, Potassium channel subfamily K member 13 (Mus musculus, UniProt Q8R1P5); experiment: Inhibition of mouse KCNK13 transfected in HEK293 cells assessed as reduction in thallium influx incubated for 15 mins in dark by FLIPR assay; type: cell-based
T1 sequence (Q8R1P5 whole entry): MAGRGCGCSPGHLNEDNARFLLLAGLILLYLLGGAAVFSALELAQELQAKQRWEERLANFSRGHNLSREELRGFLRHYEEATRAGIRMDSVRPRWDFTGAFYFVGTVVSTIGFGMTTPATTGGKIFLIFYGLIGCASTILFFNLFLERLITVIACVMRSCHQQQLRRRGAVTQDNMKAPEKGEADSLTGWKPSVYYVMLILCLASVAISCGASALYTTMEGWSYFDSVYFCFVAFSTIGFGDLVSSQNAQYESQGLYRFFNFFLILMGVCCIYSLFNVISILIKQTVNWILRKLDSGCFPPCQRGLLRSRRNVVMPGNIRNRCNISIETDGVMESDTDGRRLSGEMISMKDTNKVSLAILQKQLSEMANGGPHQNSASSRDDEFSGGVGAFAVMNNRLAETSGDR

[8] = Half life in Sprague-Dawley rat at 3 mg/kg, po; type: ADME, organism-based; conditions: in vivo
[9] = Half life in Cynomolgus monkey at 1 mg/kg, iv; type: ADME, organism-based, Macaca fascicularis; conditions: in vivo
[10] = AUC (0 to infinity) in Beagle dog at 10 mg/kg, po; type: ADME, organism-based, Canis lupus familiaris; conditions: in vivo
[11] = Half life in Beagle dog at 10 mg/kg, po; type: ADME, organism-based, Canis lupus familiaris; conditions: in vivo
[12] = Ratio of drug concentration in brain to plasma C57BL/6 mouse at 10 mg/kg, po measured after 4 hrs by LC-MS/MS analysis; type: ADME, organism-based; conditions: brain and plasma, read-out: BPR
[13] = Volume of distribution at steady state in Beagle dog at 1 mg/kg, iv; type: ADME, organism-based, Canis lupus familiaris; conditions: in vivo, read-out: Vdss
[14] = molecular target: Voltage-dependent L-type calcium channel subunit alpha-1C (Homo sapiens, UniProt Q13936); experiment: Inhibition of CaV1.2 (unknown origin); type: toxicity
Chain of Voltage-dependent L-type calcium channel subunit alpha-1C (Q13936 whole entry): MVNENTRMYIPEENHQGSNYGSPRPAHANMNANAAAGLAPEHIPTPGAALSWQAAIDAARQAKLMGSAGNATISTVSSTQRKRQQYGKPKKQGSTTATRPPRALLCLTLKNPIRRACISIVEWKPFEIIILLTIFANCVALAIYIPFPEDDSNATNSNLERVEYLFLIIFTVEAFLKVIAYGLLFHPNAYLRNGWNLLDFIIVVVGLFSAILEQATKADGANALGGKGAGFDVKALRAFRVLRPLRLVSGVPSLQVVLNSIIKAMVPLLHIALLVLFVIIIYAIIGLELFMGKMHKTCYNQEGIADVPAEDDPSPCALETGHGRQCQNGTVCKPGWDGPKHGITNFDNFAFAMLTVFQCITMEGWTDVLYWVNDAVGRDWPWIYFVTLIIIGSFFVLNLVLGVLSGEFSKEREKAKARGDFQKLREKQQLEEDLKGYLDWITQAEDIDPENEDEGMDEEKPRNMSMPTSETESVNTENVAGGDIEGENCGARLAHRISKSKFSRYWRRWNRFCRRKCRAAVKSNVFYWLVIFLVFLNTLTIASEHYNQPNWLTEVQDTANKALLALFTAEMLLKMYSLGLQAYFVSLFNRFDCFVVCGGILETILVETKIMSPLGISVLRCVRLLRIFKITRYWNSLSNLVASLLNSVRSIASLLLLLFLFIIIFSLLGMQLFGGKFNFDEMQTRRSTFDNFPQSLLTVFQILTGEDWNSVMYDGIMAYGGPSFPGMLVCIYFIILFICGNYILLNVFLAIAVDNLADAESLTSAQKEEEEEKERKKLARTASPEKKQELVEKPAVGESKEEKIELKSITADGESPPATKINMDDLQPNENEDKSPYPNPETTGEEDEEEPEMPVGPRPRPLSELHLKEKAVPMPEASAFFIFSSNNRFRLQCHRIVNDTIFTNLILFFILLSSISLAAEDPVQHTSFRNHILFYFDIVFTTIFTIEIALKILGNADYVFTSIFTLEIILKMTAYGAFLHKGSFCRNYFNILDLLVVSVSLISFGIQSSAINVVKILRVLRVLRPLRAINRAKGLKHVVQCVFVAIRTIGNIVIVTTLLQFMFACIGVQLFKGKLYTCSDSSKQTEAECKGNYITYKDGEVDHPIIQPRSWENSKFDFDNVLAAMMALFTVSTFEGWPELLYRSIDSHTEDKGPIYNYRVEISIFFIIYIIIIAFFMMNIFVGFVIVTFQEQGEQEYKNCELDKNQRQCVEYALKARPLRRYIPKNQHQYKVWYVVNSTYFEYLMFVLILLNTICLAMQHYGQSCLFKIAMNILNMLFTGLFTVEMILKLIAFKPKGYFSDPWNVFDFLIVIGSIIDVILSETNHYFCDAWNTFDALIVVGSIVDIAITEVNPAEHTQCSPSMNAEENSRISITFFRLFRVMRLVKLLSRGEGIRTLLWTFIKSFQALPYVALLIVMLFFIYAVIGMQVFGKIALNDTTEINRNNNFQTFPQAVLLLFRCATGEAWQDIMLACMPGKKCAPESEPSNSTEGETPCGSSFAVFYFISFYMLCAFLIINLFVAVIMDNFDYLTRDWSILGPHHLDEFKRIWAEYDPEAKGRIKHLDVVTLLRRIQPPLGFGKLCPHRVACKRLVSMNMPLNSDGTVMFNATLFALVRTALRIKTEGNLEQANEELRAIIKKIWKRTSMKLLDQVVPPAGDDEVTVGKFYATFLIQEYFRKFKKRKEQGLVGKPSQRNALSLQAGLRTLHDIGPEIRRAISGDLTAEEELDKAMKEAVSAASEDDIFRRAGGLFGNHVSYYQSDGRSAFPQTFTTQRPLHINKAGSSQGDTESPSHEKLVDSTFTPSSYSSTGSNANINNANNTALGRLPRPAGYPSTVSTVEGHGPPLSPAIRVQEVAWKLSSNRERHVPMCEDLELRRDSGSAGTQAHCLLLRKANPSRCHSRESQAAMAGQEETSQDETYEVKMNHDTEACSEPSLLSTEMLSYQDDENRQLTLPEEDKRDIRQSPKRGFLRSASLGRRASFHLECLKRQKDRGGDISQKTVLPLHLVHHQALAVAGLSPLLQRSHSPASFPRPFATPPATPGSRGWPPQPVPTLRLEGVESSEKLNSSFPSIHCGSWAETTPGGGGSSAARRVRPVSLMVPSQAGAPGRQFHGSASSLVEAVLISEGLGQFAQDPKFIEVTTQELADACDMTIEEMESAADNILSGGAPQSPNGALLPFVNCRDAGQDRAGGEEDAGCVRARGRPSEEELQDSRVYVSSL

[15] = Metabolic stability in human liver microsomes assessed as intrinsic clearance; type: ADME, Microsome; conditions: read-out: CLH

C0 [1]: 626 ng/mL
Vd [2]: 1.85 L/kg
Cp(f) [3]: 0.372 µM
Imax [4]: 59.1%
microsomal CLint [5]: < 9.6 µL/min/mg
C0 [6]: 896 ng/mL
IC50 [7]: 28 nM
half-life [8]: 120 min
half-life [9]: 66 min
AUC [10]: 630 ng·h/mL
half-life [11]: 156 min
Kp at 4 h [12]: 0.84
Vd [13]: 1.42 L/kg
microsomal CLint [15]: < 9.6 µL/min/mg
SMILES: Nc1nonc1-c1nc2cccc(F)c2n1Cc1cccnn1
inhibition (INH) [14]: Not Active
